Reference: patent US20130316958A1 (University of Southern California, priority 2010, published 2013)

How the values were obtained:
[1] = target: T1, Atg3-LC3 interaction (Homo sapiens, UniProt Q9NT62); experiment: Competition of vFLIP with LC3 for Atg3 binding (GST pulldown); conditions: increasing amount of Flag-vFLIP, HEK293T
T1 construct: expressed in transfected cells; host or cells: HEK293T
Description: Due to identical Atg3 binding patterns seen in vFLIP and LC3, the ability of vFLIP to directly compete with LC3 for Atg3 binding was tested. HEK293T cells were transfected with GST-Atg3 and GFP-LC3 along with increasing amount of Flag-vFLIP. At 48 hr post-transfection, GST pulldown was performed as described above, followed by immunoblotting with αGFP or αFlag.

[2] = tested on: NF-κB; experiment: NF-κB luciferase reporter assay; assay type: cell-based; conditions: NIH3T3 cells, 48 hr post-transfection
Excerpt: To determine the effects of the interactions of vFLIP with FADD, IKKαβγ, and 14-3-3σ on anti-autophagy activity, NIH3T3 cells stably expressing various vFLIP mutants were constructed: m14-3-3σ, which lacks 14-3-3σ-binding; mTRAF2, which lacks TRAF2-binding (Guasparri et al. (2006) EMBO Rep. 7:114-119); 67AAA and 58AAA, which have reduced NF-κB activation (Matta and Chaudhary (2004) Proc. Natl. Acad. Sci. USA 101:9399-9404); and mFADD, which lacks FADD-binding (Yang et al. (2005) Mol. Cell. 20:939-949). These cells were treated with either cyclohexamide (CHX) alone or CHX and TNF-α for 12 hr or with 2 μM rapamycin for 3 hr. Propidium iodide (PI) staining and flow cytometry analysis were performed to determine apoptosis levels. Alternatively, NIH3T3 cells containing vector, KSHV vFLIP, or its mutants were transfected with an NF-κB-luciferase reporter construct and a control renilla luciferase plasmid, pRL-SV40 (Promega). At 48 hr post-transfection, luciferase activity was measured with a luminometer using a dual luciferase assay kit (Promega) and normalized with renilla luciferase activity to determine transfection efficiency. GFP-LC3 puncta were detected using an inverted fluorescence microscope and the autophagy levels quantified as means (±SD) of the results from three independent experiments.

[3] = tested on: NIH3T3 cells; experiment: GFP-LC3 autophagy with ectopic FLIP expression; assay type: cell-based; conditions: Hank's solution 4 hr or 2 μM rapamycin 3 hr
Description: At 12-16 hours post-transfection with GFP-LC3, NIH3T3 cells containing vector or the FLIP gene were treated with Hank's solution for 4 hr or with 2 μM rapamycin for 3 hr. Subsequently, GFP-LC3 was detected using an inverted fluorescence microscope, autophagy was quantified as means (±SD) of the combined results from three independent experiments, and autophagosomes were visualized through scanning electron microscopy. NIH3T3-Vector, NIH3T3-KSHV-vFLIP, and NIH3T3-MCV-159L cells were treated with Hank's solution for 4 hr, followed by immunoblotting with anti-LC3 and anti-βTubulin. At 12-16 hr post-transfection with GFP-LC3, TREX-BCBL-Vector and TREX-BCBL-vFLIP cells were treated with doxycycline for 24 hr, followed by incubation with 2 μM rapamycin for an additional 12 hr. The detection of GFP-LC3 and autophagy levels was performed as described above, vFLIP expression was detected by IB with anti-Flag, and autophagosomes were visualized by scanning EM. TNF-induced apoptosis and NF-κB luciferase assay were performed as previously described (Matta and Chaudhary (2004) Proc. Natl. Acad. Sci. USA 101:9399-9404).
The anti-autophagic properties of vFLIP, as well as the related cFLIP, HSV, and MCV, were evaluated by ectopic expression of HVS, vFLIP, MCV 159L, and the short form of cFLIP (cFLIPs) in NIHI3T3 cells. DNA fragments corresponding to the coding sequences of the KSHV-vFLIP, human cFLIPs, MCV-MC159, and HVS-vFLIP genes were amplified via polymerase chain reaction and subcloned into pcDNA5/FRT/TO between the AflII and BamHI restriction sites or pEF-IRES-puro between the AflII and XbaI sites. Starvation studies were carried out by transfecting cells containing vector or the FLIP gene with GFP-LC3, then 12-16 h post-transfection, treating the cells with Hank's solution for 4 hr or with 2 μM rapamycin for 3 hr. Autophagy was assessed by GFP-LC3 redistribution using an inverted fluorescence microscope, quantifying autophagy as means (±SD) of the combined results from three independent experiments. Autophagosomes were visualized through scanning electron microscopy. […]

[4] = tested on: TREX-BCBL cells; experiment: vFLIP expression in KSHV-infected BCBL1 cells: autophagy, growth suppression and death; assay type: cell-based
Description: To investigate whether vFLIP expression suppresses autophagy in virus-infected cells, a KSHV-infected BCBL1 cell line was constructed (TREX-BCBL) in which a Flag-tagged KSHV-vFLIP gene was integrated into the chromosomal DNA under the control of a tetracycline-inducible promoter. (Nakamura et al. (2003) J. Virol. 77:4205-4220). At 12-16 hr post-transfection with GFP-LC3, TREX-BCBL-Vector and TREX-BCBL-vFLIP cells were treated with Doxycycline for 24 hr, followed by incubation with 2 μM rapamycin for an additional 12 hr. The detection of GFP-LC3 and autophagy levels was performed as described above, vFLIP expression was detected by IB with anti-Flag, and autophagosomes were visualized by scanning EM (scale bar=50 nm). Treatment of these cells with doxycycline strongly activated Flag-vFLIP expression.
The effect of vFLIP on autophagy was tested in a KSHV-infected BCBL1 cell line. TREX-BCBL-Vector and TREX-BCBL-vFLIP cells were treated with rapamycin or left untreated for 6 days in the presence of doxycycline and subjected to scanning EM, to examine the morphologies of over 100 dead cells and quantify cell death for apoptosis and autophagic death, or subjected to PI staining and cell cycle analysis.
All siRNAs were produced by Dharmacon Research. siRNAs specific for human Beclin1 (5′[…]3′) and a nonspecific scrambled control siRNA were transfected using DharmaFect reagent (Dharmacon) according to the manufacturer's instructions. At 48-72 hr post-transfection, cells were analyzed for autophagy. Trypan blue staining and a Beckman Coulter Z2 Particle Count and Size analyzer were used to determine cell death (as a percentage) at day 5.

T1 sequence (Q9NT62 whole entry): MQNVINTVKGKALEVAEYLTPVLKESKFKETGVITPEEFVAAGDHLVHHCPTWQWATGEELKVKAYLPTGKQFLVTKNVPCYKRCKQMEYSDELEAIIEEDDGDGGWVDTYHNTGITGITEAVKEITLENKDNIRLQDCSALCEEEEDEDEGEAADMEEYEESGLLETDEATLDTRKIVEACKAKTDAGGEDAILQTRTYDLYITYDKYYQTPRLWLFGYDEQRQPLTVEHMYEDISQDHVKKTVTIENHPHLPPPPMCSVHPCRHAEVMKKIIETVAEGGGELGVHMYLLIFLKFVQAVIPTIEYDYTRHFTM

## KSHV vFLIP: viral FLICE-like inhibitor protein of Kaposi's sarcoma-associated herpesvirus, expressed in cells
[1]
  effect on Atg3-LC3 interaction: marked decrease of Atg3-LC3 interaction
[2]
  NF-κB activation: carried out NF-κB activation
[3]
  suppression of starvation- and rapamycin-induced autophagy: strongly suppressed starvation- and rapamycin-induced autophagy
[4]; TREX-BCBL-vFLIP cells
  block of rapamycin-induced autophagy and cell death: readily blocked rapamycin-induced autophagy and cell death
  inhibition of peptide-induced autophagy and cell death: minimal
[4]; doxycycline 24 hr, 2 μM rapamycin 12 hr
  suppression of rapamycin-induced autophagy in TREX-BCBL cells: extensively suppressed rapamycin-induced autophagy
[4]; ectopic expression in BCBL1 cells
  block of rapamycin- or zVAD-induced growth suppression and autophagic death: almost completely blocked
